From PubChem BioAssay AID1259407 (Chemical Carcinogenesis Research Information System (CCRIS), 2018)
The source made the active and inactive calls. No rule for the calls is given here.

System: CCRIS mutagenicity, Ames/micronucleus/aberration tests
Experiment: CCRIS mutagenicity studies

CC(C)[N+](=O)[O-]
mutagenic call (End Point: IN VITRO CHROMOSOMAL ABERRATIONS, Test System: CHINESE HAMSTER OVARY CELLS, Metabolic Activation: NONE): inactive; negative | mutagenic call (End Point: IN VITRO CHROMOSOMAL ABERRATIONS, Test System: CHINESE HAMSTER OVARY CELLS, Metabolic Activation: RAT, LIVER, S-9, AROCLOR 1254): inactive; negative | mutagenic call (End Point: In vitro chromosomal aberrations, Test System: Chinese hamster lung (CHL/IU) cells, Metabolic Activation: None): inactive; negative | mutagenic call (End Point: In vitro chromosomal aberrations, Test System: Chinese hamster lung (CHL/IU) cells, Metabolic Activation: Rat, Liver, S9, Phenobarbital and 5,6-benzoflavone): inactive; negative | mutagenic call (Test System: AMES SALMONELLA TYPHIMURIUM, Strain/Indicator: TA98(NR), Metabolic Activation: NONE, Method: PREINCUBATION): active; positive | mutagenic call (Test System: AMES SALMONELLA TYPHIMURIUM, Strain/Indicator: TA98(NR), Metabolic Activation: RAT, LIVER, S-9, CLOPHEN A-50, Method: PREINCUBATION): active; positive | mutagenic call (Test System: AMES SALMONELLA TYPHIMURIUM, Strain/Indicator: TA98, Metabolic Activation: RAT, LIVER, S-9, AROCLOR 1254, Method: PREINCUBATION): active; positive | mutagenic call (Test System: AMES SALMONELLA TYPHIMURIUM, Strain/Indicator: TA98, Metabolic Activation: RAT, LIVER, S-9, CLOPHEN A-50, Method: PREINCUBATION): active; positive | mutagenic call (Test System: AMES SALMONELLA TYPHIMURIUM, Strain/Indicator: TA98, Metabolic Activation: RAT, LIVER, S-9, KANECHLOR 500, Method: PREINCUBATION): active; positive | mutagenic call (Test System: AMES SALMONELLA TYPHIMURIUM, Strain/Indicator: TA100(NR), Metabolic Activation: NONE, Method: PREINCUBATION): active; positive | mutagenic call (Test System: AMES SALMONELLA TYPHIMURIUM, Strain/Indicator: TA100(NR), Metabolic Activation: RAT, LIVER, S-9, CLOPHEN A-50, Method: PREINCUBATION): active; positive | mutagenic call (Test System: AMES SALMONELLA TYPHIMURIUM, Strain/Indicator: TA100, Metabolic Activation: RAT, LIVER, S-9, AROCLOR 1254, Method: PREINCUBATION): active; positive | mutagenic call (Test System: AMES SALMONELLA TYPHIMURIUM, Strain/Indicator: TA100, Metabolic Activation: RAT, LIVER, S-9, AROCLOR, Method: PREINCUBATION): active; positive | mutagenic call (Test System: AMES SALMONELLA TYPHIMURIUM, Strain/Indicator: TA100, Metabolic Activation: RAT, LIVER, S-9, CLOPHEN A-50, Method: PREINCUBATION): active; positive | mutagenic call (Test System: AMES SALMONELLA TYPHIMURIUM, Strain/Indicator: TA100, Metabolic Activation: RAT, LIVER, S-9, KANECHLOR 500, Method: PREINCUBATION): active; positive | mutagenic call (Test System: AMES SALMONELLA TYPHIMURIUM, Strain/Indicator: TA102, Metabolic Activation: NONE, Method: PREINCUBATION): active; positive | mutagenic call (Test System: AMES SALMONELLA TYPHIMURIUM, Strain/Indicator: TA102, Metabolic Activation: RAT, LIVER, S-9, AROCLOR 1254, Method: PREINCUBATION): active; positive | mutagenic call (Test System: AMES SALMONELLA TYPHIMURIUM, Strain/Indicator: TA102, Metabolic Activation: RAT, LIVER, S-9, AROCLOR, Method: PREINCUBATION): active; positive | mutagenic call (Test System: CHINESE HAMSTER V-79, Strain/Indicator: V-79/6-THIOGUANINE, Metabolic Activation: NONE, Method: STANDARD PLATE): active; positive | mutagenic call (Test System: CHINESE HAMSTER V-79, Strain/Indicator: V-79/6-THIOGUANINE, Metabolic Activation: RAT, HEPATOCYTES): inactive; negative | mutagenic call (Test System: CHINESE HAMSTER V-79, Strain/Indicator: V-79/OUABAIN, Metabolic Activation: NONE): inactive; negative | mutagenic call (Test System: CHINESE HAMSTER V-79, Strain/Indicator: V-79/OUABAIN, Metabolic Activation: RAT, HEPATOCYTES): inactive; negative | mutagenic call (Test System: E. COLI, Strain/Indicator: WP2 UVRA (PKM101), Metabolic Activation: NONE, Method: PREINCUBATION): active; positive | mutagenic call (Test System: E. COLI, Strain/Indicator: WP2 UVRA (PKM101), Metabolic Activation: RAT, LIVER, S-9, KANECHLOR 1254, Method: PREINCUBATION): active; positive | mutagenic call (Test System: UDS HUMAN HEPATOCYTES, Strain/Indicator: THY INCORP, Metabolic Activation: NONE, Method: AUTORADIOGRAPHY): active; positive | mutagenic call (Test System: UDS HUMAN HEPATOCYTES, Strain/Indicator: THY-INCORP, Metabolic Activation: NONE, Method: AUTORADIOGRAPHY): active; positive | mutagenic call (Test System: UDS MOUSE HEPATOCYTES, Strain/Indicator: THY INCORP, Metabolic Activation: NONE, Method: AUTORADIOGRAPHY): active; positive | mutagenic call (Test System: UDS RAT HEPATOCYTES, Strain/Indicator: THY INCORP, Metabolic Activation: NONE): active; positive | mutagenic call (Test System: UDS RAT HEPATOCYTES, Strain/Indicator: THY INCORP, Metabolic Activation: NONE, Method: AUTORADIOGRAPHY): active; positive | mutagenic call (Test System: UDS RAT HEPATOCYTES, Strain/Indicator: THY-INCORP, Metabolic Activation: NONE, Method: AUTORADIOGRAPHY): active; positive | mutagenic call (Test System: UDS RODENT HEPATOCYTES, Strain/Indicator: THY INCORP (NON-S-PHASE), Metabolic Activation: IN VIVO, Method: AUTORADIOGRAPHY): active; positive | mutagenic call (Test System: UDS RODENT HEPATOCYTES, Strain/Indicator: THY INCORP (NON-S-PHASE), Metabolic Activation: NONE, Method: LIQUID SCINTILLATION COUNTING): active; positive | mutagenic call (Test System: UDS RODENT HEPATOCYTES, Strain/Indicator: THY INCORP (NON-S-PHASE), Metabolic Activation: NONE, Method: PREINCUBATION): inactive; negative
